The source of these data is US12630507B2, “Pyrrolidine amide derivative salt and use thereof” (SUNSHINE LAKE PHARMA CO., LTD., priority 2020, dated 2026).

Data set [1] in a line: Pharmacokinetics test, oral capsules, plasma concentration by LC-MS/MS. In kind it is in vivo. The conditions noted are these: male Beagle dogs, oral capsule, 5 mg/kg. On the procedure: The test samples (that is, the salt of the present invention or its crystal form, or the compound represented by formula (I) of the present invention) were filled into capsules for oral administration.
Three […] male Beagle dogs were taken orally administered capsules containing the test sample at a dose of 5 mg/kg, and blood was collected at time points of 0.25, 0.5, 1.0, 2.0, 5.0, 7.0 and 24 h. Standard curve was plotted based on concentrations of the samples in a suitable range, the concentration of the test sample in the plasma sample was measured and quantified by AB SCIEX API5500 LC-MS/MS at MRM mode. Pharmacokinetic parameters were calculated according to drug concentration-time curve using a noncompartmental method by WinNonLin 6.3 software.

A short description of data set [2]: Solubility test in water by HPLC. The conditions noted are these: for Concentration of compound represented by formula (I) in saturated aqueous solution: ultrapure water, 37 °C, shaking for 24 h, filtrate by HPLC. In kind it is physicochemical. On the procedure: The solubility of the present invention was determined using an Agilent 1200 High Performance Liquid Chromatograph DAD/VWD detector with an Agilent XDB-C18 model (4.6×50 mm, 5 μm). Detection wavelength was 266 nm, flow rate was 1.0 mL/min, the column temperature was 35° C., mobile phase A: acetonitrile/0.01 M ammonium acetate=[…] (V/V), analysis methods: acetonitrile/mobile phase A=70/30 (V/V), running time was 10 minutes.
The test samples were placed in organic ultrapure water at 37 O(C to prepare a supersaturated solution. After shaking for 24 h, the mixture was filtered with an aqueous filter membrane to obtain the filtrate, and the solubility of the target sample in water was detected by HPLC. Results are as shown in Table 5.

Data set [3] deals with T1, MAO-B (Homo sapiens, UniProt P27338).
T1 sequence (P27338 1-520): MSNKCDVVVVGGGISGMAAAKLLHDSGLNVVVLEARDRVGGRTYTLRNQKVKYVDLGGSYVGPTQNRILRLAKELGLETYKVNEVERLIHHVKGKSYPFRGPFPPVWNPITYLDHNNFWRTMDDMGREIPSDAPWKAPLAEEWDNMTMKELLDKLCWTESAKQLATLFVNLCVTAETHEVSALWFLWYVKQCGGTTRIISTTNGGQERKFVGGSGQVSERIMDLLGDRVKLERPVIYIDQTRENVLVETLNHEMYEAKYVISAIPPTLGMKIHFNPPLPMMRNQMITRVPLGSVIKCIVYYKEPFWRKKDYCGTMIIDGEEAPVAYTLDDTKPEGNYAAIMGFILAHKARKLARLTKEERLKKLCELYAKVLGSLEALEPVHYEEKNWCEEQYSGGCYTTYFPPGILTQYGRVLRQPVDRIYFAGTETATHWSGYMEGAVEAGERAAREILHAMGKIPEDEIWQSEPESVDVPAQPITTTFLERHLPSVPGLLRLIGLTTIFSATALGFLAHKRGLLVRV
The conditions noted are these: as disclosed in WO 2019170115 A1; cited from earlier work.

The nature of data set [4]: Hygroscopicity test (weight gain, 25° C., saturated ammonium chloride desiccator, 24 hours). The format is physicochemical. On the procedure:
• 1) A dry stoppered glass weighing bottle (50 mm in outer diameter, 15 mm in height) was placed in a constant temperature desiccator (the lower part was placed in a saturated ammonium chloride solution) at 25° C.±1° C. the day before, and accurately weighed (m1). • 2) An appropriate amount of the test sample was taken and spread in the above weighing bottle. The thickness of the test sample was generally about 1 mm, and it was precisely weighed (m2). • 3) The weighing bottle was opened and placed together with the bottle cap under the above constant temperature and humidity conditions for 24 hours. • 4) The weighing bottle was closed with the bottle cap, and accurately weighed (m3).

Data set [5] is described as follows: Stability test (high temperature, high humidity, light). The format is physicochemical. The following applies: for Outward (appearance): cell wraps r9-r11: Off-white solid. As to the method:
• (1) High temperature test: a batch of the test samples were taken into the flat weighing bottles, spread into a thin layer with a thickness of ≤5 mm. The above weighing bottles were stored at 40° C.±2° C./75%±5% RH and 60° C.±2° C./75% f 5% RH for 30 days in an incubator. On the 5th, 10th, and 30th days, samples were taken for detection according to the key stability inspection items: the color change of the sample was observed, the purity of the sample was determined by HPLC. • (2) High humidity test: a batch of the test samples were taken into the flat weighing bottles, spread into a thin layer with a thickness of ≤5 mm, and stored for 30 days at 25° C., RH 75%±5% or RH 90%±5%. On the 5th, 10th, and 30th days, samples were taken for detection according to the key stability inspection items: the color change of the sample was observed, the purity of the sample was determined by HPLC. • (3) Light test: a batch of the test samples were taken into the flat weighing bottles, spread into a thin layer of ≤5 mm thick, and placed in a light box (with an ultraviolet lamp) with an open mouth. The test samples were stored under the condition of illuminance of 4500±500 lx and ultraviolet light ≥0.7 w·h/m^2 for 30 days. On the 5th, 10th, and 30th days, samples were taken for detection according to the key stability inspection items: the color change of the sample was observed, the purity of the sample was determined by HPLC.

The mark [6] stands for this setting: 25° C.±1° C., saturated ammonium chloride solution, 24 hours.
[7] abbreviates: High humidity (25° C., RH 75% ± 5%), 5 days.
Where [8] appears, read: High humidity (25° C., RH 75% ± 5%), 10 days.
[9] abbreviates: High humidity (25° C., RH 75% ± 5%), 30 days.
The mark [10] stands for this setting: High humidity (25° C., RH 90% ± 5%), 5 days.
Where [11] appears, read: High humidity (25° C., RH 90% ± 5%), 10 days.
The mark [12] stands for this setting: High humidity (25° C., RH 90% ± 5%), 30 days.
Where [13] appears, read: High temperature (40° C., RH 75% ± 5%), 5 days.
Where [14] appears, read: High temperature (40° C., RH 75% ± 5%), 10 days.
[15] abbreviates: High temperature (40° C., RH 75% ± 5%), 30 days.
Where [16] appears, read: High temperature (60° C., RH 75% ± 5%), 5 days.
[17] abbreviates: High temperature (60° C., RH 75% ± 5%), 10 days.
[18] abbreviates: High temperature (60° C., RH 75% ± 5%), 30 days.
The mark [19] stands for this setting: Light (4500±500 lx, ultraviolet), 5 days.
[20] abbreviates: Light (4500±500 lx, ultraviolet), 10 days.
Setting [21] is: Light (4500±500 lx, ultraviolet), 30 days.

As to `NC(=O)[C@@H]1C[C@H](F)CN1Cc1ccc(OCc2cccc(F)c2)cc1` [Compound represented by formula (I), (2S,4S)-4-fluoro-1-(4-(3-fluorobenzyloxy)benzyl)pyrrolidine-2-carboxamide], in data set [1], the AUClast came to 548 ng·h/mL, the Cmax (commonly the maximum level reached in the sampled fluid or tissue) is 0.256 µg/mL and the Tmax (usually the time from dosing to the highest level) came to 0.8 h. In data set [2], the “Water solubility (in words)” value is “poor water solubility” and the “Concentration of compound represented by formula (I) in saturated aqueous solution” value (shortened to “Concentration of compound represented”) came to 11.40 µg/mL. The “Inhibitory effect on the activity of MAO-B” value in data set [3] is “good inhibitory effect”.

With `NC(=O)[C@@H]1C[C@H](F)CN1Cc1ccc(OCc2cccc(F)c2)cc1` [Example 2, (2S,4S)-4-fluoro-1-(4-(3-fluorobenzyloxy)benzyl)pyrrolidine-2-carboxamide], the “Hygroscopicity” value in data set [4] is “no or almost no hygroscopicity”. Also, the “Conclusion (hygroscopicity feature)” value in data set [4] (setting [6]) was “No or almost none”. Besides, the Hygroscopicity gain in data set [4] (setting [6]) amounted to 0.12%. The compound also displayed an AUClast in data set [1] of 939 ng·h/mL. Further, in data set [1], the Cmax amounted to 0.415 µg/mL. For the same compound, the Tmax in data set [1] is listed as 1 h. Further, the “Concentration of compound represented” value in data set [2] was determined as 21161.79 µg/mL. Moreover, the Purity came to 99.74% in data set [5] (0 day); 99.80% in data set [5] (setting [7]); 99.69% in data set [5] (setting [8]); 99.72% in data set [5] (setting [9]); 99.80% in data set [5] (setting [10]); 99.69% in data set [5] (setting [11]). The Purity in data set [5] (setting [12]) is reported as 99.73%; in data set [5] (setting [13]), 99.74%; in data set [5] (setting [14]), 99.70%; in data set [5] (setting [15]) it was 99.68%; in data set [5] (setting [16]), 99.72%; in data set [5] (setting [17]) it was 99.64%. Besides, the Purity in data set [5] (setting [18]) was 99.68%; in data set [5] (setting [19]), 99.70%; in data set [5] (setting [20]) it was 99.64%; in data set [5] (setting [21]), 99.64%. Moreover, the “Outward (appearance)” value in data set [5] (0 day), in data set [5] (setting [7]), in data set [5] (setting [8]), in data set [5] (setting [9]), in data set [5] (setting [10]) and in data set [5] (setting [11]) was “Off-” in each case. Also, the “Outward (appearance)” value in data set [5] (setting [12]), in data set [5] (setting [13]), in data set [5] (setting [14]), in data set [5] (setting [15]), in data set [5] (setting [16]) and in data set [5] (setting [17]) was “Off-” in each case. Also, the “Outward (appearance)” value in data set [5] (setting [18]), in data set [5] (setting [19]), in data set [5] (setting [20]) and in data set [5] (setting [21]) was “Off-” in each case. In addition, the “Change of appearance and purity” value in data set [5] (conditions of high temperature, high humidity and light, up to 30 days) was “no obvious change”.

Regarding `NC(=O)[C@@H]1C[C@H](F)CN1Cc1ccc(OCc2cccc(F)c2)cc1` [Example 8, (2S,4S)-4-fluoro-1-(4-(3-fluorobenzyloxy)benzyl)pyrrolidine-2-carboxamide], in data set [1], the AUClast amounted to 378 ng·h/mL, the Cmax came out at 0.143 µg/mL and the time to peak (Tmax) is 0.7 h. Besides, the “Concentration of compound represented” value in data set [2] worked out at 4719.01 µg/mL.

As for `NC(=O)[C@@H]1C[C@H](F)CN1Cc1ccc(OCc2cccc(F)c2)cc1` [Example 9, (2S,4S)-4-fluoro-1-(4-(3-fluorobenzyloxy)benzyl)pyrrolidine-2-carboxamide], in data set [1], the AUClast was 450 ng·h/mL, the Cmax was determined as 0.151 µg/mL and the Tmax is 3.4 h. In addition, the “Concentration of compound represented” value in data set [2] stood at 575.35 µg/mL.

Turning to `NC(=O)[C@@H]1C[C@H](F)CN1Cc1ccc(OCc2cccc(F)c2)cc1` [Example 10, (2S,4S)-4-fluoro-1-(4-(3-fluorobenzyloxy)benzyl)pyrrolidine-2-carboxamide], in data set [1], the AUClast is 470 ng·h/mL, the Cmax was determined as 0.162 µg/mL and the Tmax was found to be 2.2 h. Besides, the “Concentration of compound represented” value in data set [2] came out at 1571.18 µg/mL.
